Values quoted from earlier work in patent US20210008081A1, “ORAL LIQUID FORMULATIONS OF ABIRATERONE” (LEIUTIS PHARMACEUTICALS PVT, LTD, priority 2018, published 2021).

- Solubility in organic solvents: sparingly soluble to freely soluble
- Solubility in water: practically insoluble
- Biopharmaceutical classification system class (low solubility low permeability): class IV
- Solubility in aqueous media (over a wide range of pH): practically insoluble
Structure (SMILES): CC(=O)O[C@H]1CC[C@@]2(C)C(=CC[C@@H]3[C@@H]2CC[C@]2(C)C(c4cccnc4)=CC[C@@H]32)C1 [Abiraterone acetate]
